Values after ≈ are worked out from the molar mass of the structure shown. Residues, ends and D or L forms follow the SMILES beside them.
Tests used:
[1] = system: Pseudomonas aeruginosa PAO1 strain H103; assay type: cell-based
In short: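 Modified broth microdilution MIC in Mueller Hinton medium, peptides diluted in 0.01% acetic acid/0.2% BSA, polypropylene plates. Inoculum 2-7×10^5 CFU/ml, overnight at 37 °C; MIC is the lowest concentration with no visible growth.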

[2] = system: Enterococcus faecalis ATCC29212; assay type: cell-based; conditions: ATCC29212
In short: (§1)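 MIC read as the concentration giving no visible growth after overnight incubation at 37° C. Peptides were diluted in 0.01% acetic acid containing 0.2% bovine serum albumin and tested in Mueller Hinton broth against 2-7×10^5 CFU/ml inoculum in polypropylene microtitre plates.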

[3] = system: Escherichia coli UB1005; assay type: cell-based; conditions: UB1005
In short: as §1

[4] = system: Staphylococcus aureus ATCC25923; assay type: cell-based; conditions: ATCC25923
In short: as §1

[5] = system: clinical isolate of Staphylococcus epidermidis; assay type: cell-based; conditions: clinical isolate of
In short: as §1

[6] = system: lab isolate of Candida albicans; assay type: cell-based; conditions: lab isolate of
In short: as §1

[7] = system: wild-type Salmonella enterica ssp. typhimurium; assay type: cell-based
In short: as §1

[8] = system: IL8 release by human PBMC; assay: Chemokine induction in PBMC (capture ELISA); assay type: cell-based; conditions: 20 or 100 μg/ml peptide, 24 hours (FIG. 14)
Protocol: FIG. 14. Induction of IL8 release by 7.5×10^5 human PBMC in response to treatment with 20 or 100 μg/ml of different peptides for 24 hours.
Venous blood (20 ml) from healthy volunteers was collected in Vacutainer® collection tubes containing sodium heparin as an anticoagulant (Becton Dickinson, Mississauga, ON) in accordance with UBC ethical approval and guidelines. Blood was diluted 1:1 with complete RPMI 1640 medium and separated by centrifugation over a Ficoll-Paque® Plus (Amersham Biosciences, Piscataway, N.J., USA) density gradient. White blood cells were isolated from the buffy coat, washed twice in RPMI 1640 complete medium, and the number of peripheral blood mononuclear cells (PBMC) was determined by trypan blue exclusion. PBMC (5×10^5) were seeded into 12-well tissue culture dishes (Falcon; Becton Dickinson) at 0.75 to 1×10^6 cells/ml at 37° C. in 5% CO2. The above conditions were chosen to mimic conditions for circulating blood monocytes entering tissues at the site of infection via extravasation.
Following incubation of the cells under various treatment regimens, the tissue culture supernatants were centrifuged at 1000×g for 5 min, then at 10,000×g for 2 min to obtain cell-free samples. Supernatants were aliquoted and then stored at −20° C. prior to assay for various chemokines by capture ELISA (eBioscience and BioSource International Inc., CA, USA respectively)

[9] = system: MCP-1 release by human PBMC; assay: Chemokine induction in PBMC (capture ELISA); assay type: cell-based; conditions: background (204) subtracted
In short: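 Heparinized blood from healthy volunteers; Ficoll-isolated human PBMC (7.5×10^5) treated with peptides at 20 or 100 μg/ml for 24 hours at 37° C, 5% CO2. Cell-free supernatants assayed for MCP-1 by capture ELISA.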

[10] = system: MCP-3 release by human PBMC; assay: Chemokine induction in PBMC (capture ELISA); assay type: cell-based; conditions: background (6) subtracted
In short: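 Human PBMC from healthy donors (Ficoll-isolated), 7.5×10^5 cells at 0.75–1×10^6 cells/ml, treated with peptides at 20 or 100 μg/ml for 24 h at 37° C, 5% CO2. MCP-3 in cell-free supernatants measured by capture ELISA.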

[11] = system: CXCL1 (Gro-α) release by human PBMC; assay: Chemokine induction in PBMC (capture ELISA); assay type: cell-based; conditions: background (196) subtracted
In short: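 Human PBMC from healthy donors' heparinised blood (Ficoll), 7.5×10^5 cells treated with 20 or 100 μg/ml peptide for 24 h at 37° C, 5% CO2. Cell-free supernatants assayed for CXCL1 by capture ELISA.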

[12] = system: clinical isolates of MRSA; assay type: cell-based, Staphylococcus aureus
In short: (§2)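 Modified broth microdilution in Mueller Hinton medium, peptides serially diluted in 0.01% acetic acid with 0.2% BSA in polypropylene plates. Inoculum 2-7×10^5 CFU/ml, overnight incubation at 37° C; MIC taken as lowest concentration with no visible growth.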

[13] = system: ESBL E. cloacae; assay type: cell-based, Enterobacter cloacae
In short: as §2

[14] = system: Liverpool Epidemic Strains; assay type: cell-based, Pseudomonas aeruginosa
In short: as §2

[15] = system: S. aureus; assay: Mouse model of aggressive bacterial infection (intraperitoneal); assay type: in vivo; conditions: 1.6×10^10 CFU IP; 4 mg/kg peptide IP four hours post infection; total infection time 24 hours; saline controls 100% death
Protocol: FIG. 10. Ability of new antimicrobial peptides HHC-10 and HHC-36 to protect mice against Staph aureus infections. Bacterial loads in the peritoneal lavage from individual mice after 24 hours of infection are shown (solid circles). Dead animals were assigned the highest colony forming unit (CFU) count obtained in the experiment. The solid line represents the arithmetic mean for each group.
(§3) FIG. 18. […] Mice were treated with 1.6×10^10 CFU of S. aureus intraperitoneally. Four hours post infection they received a dose of 8 mg/kg peptide IP. The infection was allowed to progress for 4 or 24 hours after which mice were euthanaised and plate counts of staphylococci surviving in the peritoneum were determined. Bacterial loads in the peritoneal lavage from individual mice after 24 hours of infection are shown (solid circles). The solid line represents the arithmetic mean for each group.
as §3, with “19.” for “18.”
To further confirm this, a mouse model of aggressive bacterial infection, widely used to assess antibiotic efficacy, was utilized. Mice were treated with 1.6×10^10 CFU IP. Four hours post infection they received a dose of 4 mg/kg peptide IP. The infection was allowed to progress for 20 more hours, for a total infection time of 24 hours.
These immunomodulatory activities led to protection against infections by S. aureus. Briefly a mouse model of aggressive bacterial infection, widely used to assess antibiotic efficacy, was utilized. […] The infection was allowed to progress for 4 or 24 hours after which mice were euthanaised and plate counts of staphylococci surviving in the peritoneum were determined.

[16] = system: ESBL E. coli clinical strain 64771; assay type: cell-based; conditions: ESBL clinical strain 64771
In short: (§4)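 Broth microdilution in Mueller Hinton medium, peptides serially diluted in 0.01% acetic acid with 0.2% BSA in polypropylene plates. Inoculum 2-7×10^5 CFU/ml, incubated overnight at 37° C. MIC is the lowest concentration with no visible growth.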

[17] = system: ESBL Klebsiella pneumonia clinical strain 63575; assay type: cell-based
In short: as §4

[18] = system: multidrug resistant Pseudomonas maltophilia ATCC13637; assay type: cell-based
In short: as §4

[19] = system: multidrug resistant Brazilian clinical isolates of P. aeruginosa; assay type: cell-based, Pseudomonas aeruginosa
In short: as §2

[20] = system: VRE Vancomycin resistant Enterococcus faecalis clinical isolates; assay type: cell-based
In short: as §4

[21] = LDH release; assay type: cell-based; design: dose or concentration left out as unconfirmed
Protocol: In addition the following peptides were tested for LDH release: 1002, 1005, 1012, 1010, 1013, 1018, 1020, 1026, 1028, 1032, 1033, 1035, and 1037.

SMILES	Chemokine induction MCP-1 ([9]; 20 μg/ml peptide) [pg/mL]	Chemokine induction MCP-1 ([9]; 100 μg/ml peptide) [pg/mL]	Chemokine induction MCP-3 ([10]; 20 μg/ml peptide) [pg/mL]	Chemokine induction MCP-3 ([10]; 100 μg/ml peptide) [pg/mL]	Chemokine induction Gro-α ([11]; 20 μg/ml peptide) [pg/mL]	Chemokine induction Gro-α ([11]; 100 μg/ml peptide) [pg/mL]	MIC [2] [µM]	MIC [4] [µM]	MIC [12] [µM]	MIC [13] [µM]	MIC [14] [µM]	mice protected [15] [%]	MIC [16] [µM]	MIC [17] [µM]	MIC [18] [µM]	other results
CC(C)[C@H](NC(=O)[C@H](CCCNC(=N)N)NC(=O)[C@H](Cc1ccccc1)NC(=O)[C@H](CCCNC(=N)N)NC(=O)[C@H](Cc1ccccc1)NC(=O)[C@H](CCCNC(=N)N)NC(=O)[C@H](Cc1ccccc1)NC(=O)[C@H](CCC(N)=O)NC(=O)[C@@H](N)Cc1c[nH]cn1)C(=O)N[C@@H](CCCNC(=N)N)C(=O)N[C@@H](CCCNC(=N)N)C(=O)N[C@@H](CCCCN)C(N)=O [HH13, HQFRFRFRVRRK] (H-HQFRFRFRVRRK-NH2; N-terminus assumed)	1	0	40	54	15	42	–	–	–	–	–	–	–	–	–	MIC P. aerug ([1]; PAO1): 50 µg/mL (≈ 28.9 µM); MIC E. faecalis [2]: >50 µg/mL; MIC E. coli [3]: 25 µg/mL (≈ 14.4 µM); MIC S. aureus [4]: 12 µg/mL (≈ 6.93 µM); MIC S. epi. [5]: 6 µg/mL (≈ 3.46 µM); MIC C. albicans [6]: >50 µg/mL; MIC S. typhi [7]: 12 µg/mL (≈ 6.93 µM); induction of IL8 [8]: strongest abilities to induce this chemokine
CC[C@H](C)[C@H](NC(=O)[C@H](Cc1c[nH]c2ccccc12)NC(=O)[C@H](CCCCN)NC(=O)[C@H](Cc1c[nH]c2ccccc12)NC(=O)[C@H](Cc1c[nH]c2ccccc12)NC(=O)[C@H](CCCNC(=N)N)NC(=O)[C@@H](N)CCCCN)C(=O)N[C@@H](CCCNC(=N)N)C(=O)N[C@@H](Cc1c[nH]c2ccccc12)C(N)=O [HHC10, KRWWKWIRW] (H-KRWWKWIRW-NH2; N-terminus assumed)	48	3210	-1	49	-11	2	12 (≈ 17.3 µg/mL)	3 (≈ 4.33 µg/mL)	1.5 (≈ 2.17 µg/mL)	3 (≈ 4.33 µg/mL)	0.8 (≈ 1.16 µg/mL)	40	1.5 (≈ 2.17 µg/mL)	6 (≈ 8.66 µg/mL)	0.4 (≈ 0.578 µg/mL)	–
N=C(N)NCCC[C@H](NC(=O)[C@H](CCCNC(=N)N)NC(=O)[C@H](Cc1c[nH]c2ccccc12)NC(=O)[C@H](Cc1c[nH]c2ccccc12)NC(=O)[C@H](CCCCN)NC(=O)[C@H](Cc1c[nH]c2ccccc12)NC(=O)[C@H](Cc1c[nH]c2ccccc12)NC(=O)[C@H](CCCNC(=N)N)NC(=O)[C@@H](N)CCCCN)C(N)=O [HHC36, KRWWKWWRR] (H-KRWWKWWRR-NH2; N-terminus assumed)	38	168	1	1	19	-8	43 (≈ 63.9 µg/mL)	3 (≈ 4.46 µg/mL)	1.4 (≈ 2.08 µg/mL)	11 (≈ 16.4 µg/mL)	0.3 (≈ 0.446 µg/mL)	60	3 (≈ 4.46 µg/mL)	22 (≈ 32.7 µg/mL)	1.4 (≈ 2.08 µg/mL)	–
CC[C@H](C)[C@H](NC(=O)[C@H](CC(N)=O)NC(=O)[C@H](CCCCN)NC(=O)[C@H](Cc1ccccc1)NC(=O)[C@H](CCCNC(=N)N)NC(=O)[C@H](Cc1c[nH]c2ccccc12)NC(=O)[C@H](C)N)C(=O)N[C@@H](CCCNC(=N)N)C(=O)N[C@@H](CCCCN)C(N)=O [HHC126, AWRFKNIRK] (H-AWRFKNIRK-NH2; N-terminus assumed)	314	104	3	0	75	-2	>223	223 (≈ 272 µg/mL)	>223	>223	111 (≈ 135 µg/mL)	–	223 (≈ 272 µg/mL)	>223	>223	antimicrobial activity against P. aeruginosa PAO1 (in words) ([1]; laboratory strain P. aeruginosa PAO1): did not return any generally active substances; MIC [19]: >223 µM; MIC [20]: >223 µM
CC[C@H](C)[C@H](NC(=O)[C@H](CCCNC(=N)N)NC(=O)[C@@H](NC(=O)[C@H](C)NC(=O)[C@@H](NC(=O)[C@@H](NC(=O)[C@H](CC(C)C)NC(=O)[C@H](CCCNC(=N)N)NC(=O)[C@@H](N)C(C)C)[C@@H](C)CC)C(C)C)C(C)C)C(=O)N[C@@H](Cc1c[nH]c2ccccc12)C(=O)N[C@@H](CCCNC(=N)N)C(=O)N[C@@H](CCCNC(=N)N)C(N)=O [compound 1018, VRLIVAVRIWRR] (H-VRLIVAVRIWRR-NH2)	–	–	–	–	–	–	–	–	–	–	–	–	–	–	–	LDH release [21]: None showed any LDH release
